From PubChem BioAssay (NCI)
“And” between values parts separate entries of the source, which are not always exact repeats. Equal values may be shown once.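 Values below derive from 48-hour exposures of cells grown in 96-well plates, with endpoints linearly interpolated between the two concentrations bracketing the appropriate inhibition level. Here, GI50 denotes the concentration required for 50% inhibition of growth. TGI is the concentration that stops growth completely.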

What was measured:
Assay in all cases: NCI anticancer screen, dose series, 48 h
DMS 273 small cell lung = tested on: DMS 273 small cell lung
M19-MEL melanoma = tested on: M19-MEL melanoma
KM20L2 colon = tested on: KM20L2 colon
XF 498 CNS = tested on: XF 498 CNS
HOP-18 NSCLC = tested on: HOP-18 NSCLC
SNB-78 CNS = tested on: SNB-78 CNS
DLD-1 colon = tested on: DLD-1 colon
RXF-631 renal = tested on: RXF-631 renal

SMILES	TGI (DMS 273 small cell lung)	TGI (M19-MEL melanoma)	TGI (KM20L2 colon)	TGI (XF 498 CNS)	TGI (HOP-18 NSCLC)	TGI (SNB-78 CNS)	TGI (DLD-1 colon)	TGI (RXF-631 renal)	GI50 (XF 498 CNS)	GI50 (HOP-18 NSCLC)
CC[n+]1c(/C=C/c2cc(C(=O)OC)n3c2sc2ccccc23)sc2ccccc21	38.2 µM	35.5 µM	35.1 µM	29.3 µM	–	–	–	–	–	–
O=C(O)C(Cc1ccc(O)cc1)N=Cc1nc(-c2ccccc2)oc1O (stereo unspecified)	> 100 µM	–	> 100 µM	> 100 µM	> 100 µM	> 100 µM	> 100 µM	–	–	–
COc1cc2c(c(OC)c1OC)[C@@H]1CCCCC[C@@H]1CCC2=O	> 100 µM	> 100 µM	> 100 µM	> 100 µM	> 100 µM	–	> 61 µM	> 100 µM	–	–
COc1cc(C(C)c2cc3c(cc2OCCCCCOc2cc4c(cc2C(C)c2cc(OC)c(OC)c(OC)c2)OCO4)OCO3)cc(OC)c1OC (stereo unspecified)	> 100 µM	> 100 µM	> 100 µM	–	–	–	> 100 µM	–	–	–
CC(=O)NC1=C(NCCO)C(=O)c2ccccc2C1=O	> 50 µM	18.6 µM	> 50 µM	> 50 µM	–	> 50 µM	> 50 µM	–	–	–
COc1cc(CNc2ccc(C)cc2)cc(OC)c1OC	–	> 100 µM	0.447 µM and 0.939 µM	> 100 µM	> 100 µM	> 100 µM	> 100 µM	–	1.98 µM	17.8 µM and > 60.8 µM
Cc1nsc2cc(Cl)n(C)c(=O)c12	> 100 µM	> 100 µM	> 100 µM	> 100 µM	–	> 100 µM	> 100 µM	> 100 µM	–	–
Nc1ccc(C(=O)NN2C(=O)C(Cl)C2c2ccc(O)cc2)cc1 (stereo unspecified)	35.1 µM	38.8 µM	41.9 µM	27.8 µM	–	44.6 µM	33.4 µM	–	–	–
O=C(CC(=O)n1nc(-c2ccccc2)c(N=Nc2ccc([N+](=O)[O-])cc2)c1-c1ccccc1)Nc1ccc(Cl)cc1	> 100 µM	> 100 µM	24.9 µM	59.1 µM	> 100 µM	> 100 µM	> 100 µM	> 100 µM	–	–
